The values below come from patent US20260199485A1, “RNA DEGRADERS AND USES THEREOF” (Arrakis Therapeutics, Inc., priority 2022, published 2026).

In general, Kd refers to the equilibrium constant for the complex coming apart. Higher therefore signals weaker binding.

In the first assay the target is T1, CNOT7 (Homo sapiens, UniProt Q9UIV1).
T1 construct: biotin (biotinylated); purchased Ichor Life Sciences
T1 sequence (Q9UIV1 whole entry): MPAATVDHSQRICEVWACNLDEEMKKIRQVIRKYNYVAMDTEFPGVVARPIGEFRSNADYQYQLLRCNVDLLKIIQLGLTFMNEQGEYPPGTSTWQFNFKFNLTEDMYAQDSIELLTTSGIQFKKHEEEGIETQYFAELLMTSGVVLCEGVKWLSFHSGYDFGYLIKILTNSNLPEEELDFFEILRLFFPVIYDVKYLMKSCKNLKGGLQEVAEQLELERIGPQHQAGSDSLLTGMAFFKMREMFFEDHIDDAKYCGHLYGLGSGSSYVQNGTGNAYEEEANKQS
Put plainly: Binding of compounds to CNOT7 by surface plasmon resonance (SPR). To be noted: Table 5; dissociation constant for CNOT7 by SPR. As for the experimental part: Surface plasmon resonance (SPR) was used to evaluate the binding of compounds to CNOT7. Experiments were performed on a Biacore 8K (Cytiva) with a running buffer consisting of 20 mM HEPES pH7.5, 100 mM KCl, 3 mM MgCl2, 1 mM TCEP, 0.05% tween-20, 2% DMSO. Briefly, biotinylated CNOT7 (Ichor Life Sciences) at a concentration of 70 μg/ml was immobilized to a streptavidin coated chip (Cytiva sensor chip SA) for 1200 sec at a flow rate of 5 μl/min (typical immobilization level 7,500 RU). For compound binding experiments, various concentrations of analyte were flowed over the chip with 120 sec association phase, 120 sec dissociation phase, at a flow rate of 30 ul/min and collection rate of 10 Hz. Reference channel subtraction and solvent correction were applied to all sensograms prior to data analysis. Sensograms were fit to 1:1 steady state affinity model. FIGS. 3 and 4 show the binding of exemplary compounds and the AMP control (a known CNOT7 active site binder) at various concentrations to CNOT7.
(In general: SPR reads the build-up and loss of mass on a sensor chip optically.)
`COc1ccc(CNC(=O)C(C)Sc2nc(=O)[nH]cc2C)cc1` (centres unmarked) [Compound I-168] yielded an equilibrium dissociation constant (Kd) of 1000 to 25000 nM. The same measure, in the same setting: the result for `COCC(Sc1nc(=O)[nH]cc1C)C(=O)NCc1ccc(OC)cc1` (centres unmarked) [Compound I-169] reads 1000 to 25000 nM; that for `CCC(Sc1nc(=O)[nH]cc1C)C(=O)NCc1ccc(OC)cc1` (centres unmarked) [Compound I-170], 1000 to 25000 nM. `COCC(Sc1nc(=O)[nH]cc1C)C(=O)NCc1ccc2c(c1)CC(=O)N2` (centres unmarked) [Compound I-191] came in with a Kd of 100 to 1000 nM. In turn, `COCC(Sc1nc(=O)[nH]cc1C)C(=O)NC(C)c1ccc2c(c1)CC(=O)N2` (centres unmarked) [Compound I-192] returned a Kd of 1000 to 25000 nM. Still for that read-out and setting: as for `COC[C@H](Sc1nc(=O)[nH]cc1C)C(=O)N[C@H](C)c1ccc2c(c1)CC(=O)N2` [Compound I-193], the figure is 1000 to 25000 nM. On to `COc1ccc(C2(NC(=O)CSc3nc(=O)[nH]cc3C)CC2)cc1` [Compound I-197], for which the Kd is 1000 to 25000 nM. Still for that read-out and setting: the result for `COc1ccc2c(c1)CN(C(=O)CSc1nc(=O)[nH]cc1C)C2` [Compound I-205] reads over 25000 nM. Turning to `CC[C@@H](NC(=O)CSc1nc(=O)[nH]cc1C)c1ccc(OC)cc1` [Compound I-217], the Kd was 1000 to 25000 nM. In the case of `COc1ccc([C@H](NC(=O)CSc2nc(=O)[nH]cc2C)C(C)C)cc1` [Compound I-218], the dissociation constant Kd fell in the range of 1000 to 25000 nM. With `Cc1c[nH]c(=O)nc1SCC(=O)N[C@@H](c1ccc(O)cc1)C1CC1` [Compound I-219], the Kd is 1000 to 25000 nM. Still for that read-out and setting: as for `COc1ccc([C@H](NC(=O)CSc2nc(=O)[nH]cc2C)C(F)(F)F)cc1` [Compound I-221], the figure is 1000 to 25000 nM; as for `COc1ccc(C(C)NC(=O)CSc2nc(=O)[nH]cc2C2CC2)cc1` (centres unmarked) [Compound I-225], over 25000 nM.

Compound `CCc1c[nH]c(=O)nc1SCC(=O)N[C@H](C)c1ccc(OC)cc1` [Compound I-226] displayed a Kd of 1000 to 25000 nM. In the case of `COc1ccc([C@@H](C)NC(=O)CSc2nc(=O)[nH]cc2F)cc1` [Compound I-228], the Kd lay in the range of 1000 to 25000 nM. For `COc1ccc(C(C)NC(=O)CSc2nc(=O)[nH]cc2OC)cc1` (centres unmarked) [Compound I-230], the Kd is over 25000 nM. The same measure, in the same setting: as for `COc1ccc(C(C)NC(=O)C2CC2c2nc(=O)[nH]cc2C)cc1` (centres unmarked) [Compound I-238], the figure is over 25000 nM.

In turn, `COc1ccc([C@@H](C)NC(=O)CSc2[nH]c(=O)[nH]c(=O)c2C)cc1` [Compound I-242] yielded a Kd of over 25000 nM. Take `COc1ccc([C@@H](C)NC(=O)CSc2nc(=O)[nH]cc2C)cc1` [Compound I-247]: the Kd lay within 1000 to 25000 nM. In turn, `COc1ccc(C(C)(C)NC(=O)CSc2nc(=O)[nH]cc2C)cc1` [Compound I-249] came in with a Kd of 1000 to 25000 nM. `COc1ccc(CN2CCC(Sc3nc(=O)[nH]cc3C)C2=O)cc1` (centres unmarked) [Compound I-252] gave a Kd of over 25000 nM. The same measure, in the same setting: as for `COc1ccc(CN2CC[C@H](Sc3nc(=O)[nH]cc3C)C2=O)cc1` [Compound I-254], the figure is over 25000 nM; as for `COCC(Sc1nc(=O)[nH]cc1C)C(=O)NC(C)c1ccc(OC)cc1` (centres unmarked) [Compound I-266], 1000 to 25000 nM; as for `COCC(Sc1nc(=O)[nH]cc1C)C(=O)NC(C)c1ccc(OC)cc1` (centres unmarked) [Compound I-267], 1000 to 25000 nM. For `CCOc1ccc([C@@H](C)NC(=O)CSc2nc(=O)[nH]cc2C)cc1` [Compound I-277], the Kd lay within 1000 to 25000 nM. The compound `COc1ccc(CN(CCO)C(=O)CSc2cc(=O)[nH]cc2C)cc1` [Compound I-287] showed a dissociation constant (Kd) of over 25000 nM. Take `Cc1c[nH]c(=O)nc1SCC(=O)NC(C)c1ccc(S(C)(=O)=O)cc1` (centres unmarked) [Compound I-294]: the Kd is 1000 to 25000 nM.

In turn, `COc1ccc([C@@H](C)NC(=O)CSc2nc(=O)[nH]cc2Cl)cc1F` [Compound I-306] displayed a Kd of 1000 to 25000 nM. `COc1ccc(C2(NC(=O)CSc3nc(=O)[nH]cc3Cl)CC2)cc1F` [Compound I-307] gave a Kd of 100 to 1000 nM.

`C[C@@H](NC(=O)CSc1nc(=O)[nH]cc1Cl)c1ccc(Cl)c(F)c1` [Compound I-314] came in with a Kd of 1000 to 25000 nM.

Still in this assay, the particulars now being: Table 6; dissociation constant for CNOT7 by SPR.
In turn, `COCCOC[C@@H](Sc1nc(=O)[nH]cc1C)C(=O)N[C@H](C)c1ccc(OC)cc1` [Compound I-172] came in with a dissociation constant (Kd) of 1000 to 25000 nM. Compound `COCCOC[C@H](Sc1nc(=O)[nH]cc1C)C(=O)N[C@H](C)c1ccc(OC)cc1` [Compound I-173] gave a Kd of 1000 to 25000 nM. Turning to `Cc1c[nH]c(=O)nc1SCC(=O)N[C@H](C)c1ccc2c(c1)CC(=O)N2` [Compound I-190], the Kd was in the range of 1000 to 25000 nM.

Turning to `COc1ccc2c(c1)CCN(C(=O)CSc1nc(=O)[nH]cc1C)[C@@H]2C` [Compound I-199], the Kd lay in the range of 100 to 1000 nM.

Consider `C#CCOCCOCCOCCOC[C@@H]1Cc2cc(OC)ccc2CN1C(=O)CSc1nc(=O)[nH]cc1C` [Compound I-203], for which the Kd lay within 1000 to 25000 nM. For the compound `COc1ccc([C@@H](C)NC(=O)CSc2nc(=O)[nH]cc2Cl)cc1` [Compound I-229], the Kd fell in the range of 1000 to 25000 nM. In turn, `COc1ccc(C(C)NC(=O)CSc2nc(=O)[nH]cc2C)cc1F` (centres unmarked) [Compound I-244] had a Kd of 1000 to 25000 nM.

In turn, `COc1ccc([C@@H](C)NC(=O)CSc2nc(=O)[nH]cc2C)c(C)c1` [Compound I-248] had a Kd of 100 to 1000 nM. `COc1ccc([C@](C)(CO)NC(=O)CSc2nc(=O)[nH]cc2C)cc1` [Compound I-250]: the Kd is 1000 to 25000 nM. `COc1ccc([C@@H](C)NC(=O)[C@@H](CCOCCOCCOCCN=[N+]=[N-])Sc2cc[nH]c(=O)n2)cc1` [Compound I-261] gave a Kd of 1000 to 25000 nM. In turn, `COc1ccc([C@@H](C)NC(=O)CSc2cc(=O)[nH]cc2C)nc1` [Compound I-281] gave a Kd of 1000 to 25000 nM. On the same count and under the same terms, as for `COc1cc(F)c([C@@H](C)NC(=O)CSc2nc(=O)[nH]cc2Cl)cc1F` [Compound I-311], the figure is 1000 to 25000 nM. On the same count and under the same terms, the result for `COc1cc(F)c([C@@H](C)NC(=O)CSc2nc(=O)[nH]cc2Cl)c(F)c1` [Compound I-312] reads 1000 to 25000 nM; that for `COc1c(F)cc([C@@H](C)NC(=O)CSc2nc(=O)[nH]cc2Cl)cc1F` [Compound I-313], 1000 to 25000 nM; that for `Cc1c[nH]c(=O)nc1SCC(=O)NC(C)c1ccc2c(c1)CC(=O)N2` (centres unmarked) [Compound I-322], 1000 to 25000 nM. `COCC(Sc1nc(=O)[nH]cc1Cl)C(=O)NC(C)c1ccc2c(c1)CC(=O)N2` (centres unmarked) [Compound I-323] yielded a Kd of 1000 to 25000 nM. `COc1ccc([C@@H](C)NC(=O)C2(Sc3nc(=O)[nH]cc3C)CCC2)cc1` [Compound I-324]: the Kd was in the range of 1000 to 25000 nM. Consider `COC[C@H](Sc1nc(=O)[nH]cc1C)C(=O)N[C@@H](C)c1ccc2c(c1)CC(=O)N2` [Compound I-325], for which the Kd lay in the range of 1000 to 25000 nM.

The compound `C#CCOCCOCCOCC(Sc1nc(=O)[nH]cc1C)C(=O)NC(C)c1ccc(OC)cc1F` (centres unmarked) [Compound I-326] showed a Kd of 1000 to 25000 nM. Compound `COc1ccc([C@@H](NC(=O)CSc2nc(=O)[nH]cc2C)C(C)C)cc1` [Compound I-327] had a Kd of 1000 to 25000 nM.

`Cc1c[nH]c(=O)nc1SCC(=O)N[C@@H](C)c1ccc2c(c1)CC(=O)N2` [Compound I-328] came in with a Kd of 1000 to 25000 nM.

Still in this assay, the particulars now being: dissociation constant by SPR, Table 7.
With `COCC(Sc1nc(=O)[nH]cc1Cl)C(=O)NC(C)c1ccc2c(c1)CC(=O)N2` (centres unmarked) [Compound I-323], the Kd fell in the range of 1000 to 25000 nM. Consider `COc1ccc([C@@H](C)NC(=O)C2(Sc3nc(=O)[nH]cc3C)CCC2)cc1` [Compound I-324], for which the equilibrium dissociation constant (Kd) is 100 to 1000 nM. The same measure, in the same setting: the result for `COC[C@H](Sc1nc(=O)[nH]cc1C)C(=O)N[C@@H](C)c1ccc2c(c1)CC(=O)N2` [Compound I-325] reads 1000 to 25000 nM. Still for that read-out and setting: the result for `C#CCOCCOCCOCC(Sc1nc(=O)[nH]cc1C)C(=O)NC(C)c1ccc(OC)cc1F` (centres unmarked) [Compound I-326] reads 1000 to 25000 nM; that for `COc1ccc([C@@H](NC(=O)CSc2nc(=O)[nH]cc2C)C(C)C)cc1` [Compound I-327], 1000 to 25000 nM; that for `Cc1c[nH]c(=O)nc1SCC(=O)N[C@@H](C)c1ccc2c(c1)CC(=O)N2` [Compound I-328], 1000 to 25000 nM.

For `COCC(Sc1nc(=O)[nH]cc1C)C(=O)NC(C)c1ccc2c(c1)CC(=O)N2` (centres unmarked) [Compound I-331], the Kd fell in the range of 1000 to 25000 nM.

`COC[C@@H](Sc1nc(=O)[nH]cc1C)C(=O)N[C@@H](C)c1ccc2c(c1)CC(=O)N2` [Compound I-332] yielded a Kd of 1000 to 25000 nM.
